In patent publication US12391664B2, “GluN2C/D subunit selective antagonists of the N-methyl-D-aspartate receptor” (Emory University, priority 2018, dated 2025):

Tests used:
[1] = biological target: T1, recombinant rat GluN1/GluN2D (Rattus norvegicus, UniProt Q62645); test: Two-electrode voltage-clamp recordings in Xenopus laevis oocytes, GluN2D; type: cell-based; conditions: oocytes, 100 μM glutamate and 30 μM glycine
T1 construct: expressed in transfected cells; host or cells: Xenopus laevis oocytes injected with cRNA (GluN1:GluN2 ratio 1:2)
T1 sequence (Q62645 28-1323, other chains not shown): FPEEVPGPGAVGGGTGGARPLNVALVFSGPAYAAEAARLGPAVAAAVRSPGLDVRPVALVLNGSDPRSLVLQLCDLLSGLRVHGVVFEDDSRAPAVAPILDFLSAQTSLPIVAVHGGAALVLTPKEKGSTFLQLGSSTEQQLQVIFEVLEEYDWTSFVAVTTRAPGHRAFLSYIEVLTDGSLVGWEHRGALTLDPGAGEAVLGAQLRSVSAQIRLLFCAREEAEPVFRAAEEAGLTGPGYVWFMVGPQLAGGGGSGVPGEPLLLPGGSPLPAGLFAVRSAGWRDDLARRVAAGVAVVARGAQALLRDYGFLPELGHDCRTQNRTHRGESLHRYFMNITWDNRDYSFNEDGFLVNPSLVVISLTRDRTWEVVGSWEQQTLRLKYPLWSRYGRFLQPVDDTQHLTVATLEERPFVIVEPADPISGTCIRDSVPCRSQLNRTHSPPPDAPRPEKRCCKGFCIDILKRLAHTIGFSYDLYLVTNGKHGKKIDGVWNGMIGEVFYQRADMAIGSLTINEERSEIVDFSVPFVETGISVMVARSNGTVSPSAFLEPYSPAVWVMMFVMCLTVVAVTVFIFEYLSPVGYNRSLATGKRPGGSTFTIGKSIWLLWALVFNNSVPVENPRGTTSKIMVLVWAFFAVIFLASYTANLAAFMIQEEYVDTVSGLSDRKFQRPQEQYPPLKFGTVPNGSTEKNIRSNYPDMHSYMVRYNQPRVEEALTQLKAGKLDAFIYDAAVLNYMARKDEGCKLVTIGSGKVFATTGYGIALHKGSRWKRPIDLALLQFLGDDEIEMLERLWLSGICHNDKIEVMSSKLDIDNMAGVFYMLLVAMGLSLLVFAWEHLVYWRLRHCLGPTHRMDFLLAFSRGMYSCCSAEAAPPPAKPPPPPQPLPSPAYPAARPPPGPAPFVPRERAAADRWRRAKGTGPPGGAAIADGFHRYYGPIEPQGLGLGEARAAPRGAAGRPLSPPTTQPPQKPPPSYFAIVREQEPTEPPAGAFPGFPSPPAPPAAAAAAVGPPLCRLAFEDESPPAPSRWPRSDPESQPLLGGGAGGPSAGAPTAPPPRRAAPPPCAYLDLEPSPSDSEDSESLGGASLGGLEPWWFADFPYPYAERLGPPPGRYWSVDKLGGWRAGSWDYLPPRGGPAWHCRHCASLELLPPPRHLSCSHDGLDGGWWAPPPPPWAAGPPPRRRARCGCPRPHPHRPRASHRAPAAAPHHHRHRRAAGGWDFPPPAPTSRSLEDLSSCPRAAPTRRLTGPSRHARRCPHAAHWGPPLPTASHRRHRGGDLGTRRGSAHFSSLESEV
How it was run: (§1)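 Oocytes injected with rat GluN1/GluN2 cRNA (1:2), held 2–5 days at 15–17 °C, clamped at −40 mV in Ba2+-containing recording solution, pH 7.4, 23 °C. Compounds applied (up to 100 μM) with 100 μM glutamate plus 30 μM glycine. IC50 and Hill slope from concentration-response fits of averaged current inhibition.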

[2] = biological target: T2, recombinant rat GluN1/GluN2B (Rattus norvegicus, UniProt Q00960); test: Two-electrode voltage-clamp recordings in Xenopus laevis oocytes, GluN2B; type: cell-based; conditions: oocytes, 100 μM glutamate and 30 μM glycine
T2 construct: expressed in transfected cells; host or cells: Xenopus laevis oocytes injected with cRNA (GluN1:GluN2 ratio 1:2)
How it was run: as §1

[3] = biological target: T3, recombinant rat GluN1/GluN2C (Rattus norvegicus, UniProt Q00961); test: Two-electrode voltage-clamp recordings in Xenopus laevis oocytes, GluN2C; type: cell-based; conditions: oocytes, 100 μM glutamate and 30 μM glycine
T3 construct: expressed in transfected cells; host or cells: Xenopus laevis oocytes injected with cRNA (GluN1:GluN2 ratio 1:2)
T3 sequence (Q00961 20-1237, other chains not shown): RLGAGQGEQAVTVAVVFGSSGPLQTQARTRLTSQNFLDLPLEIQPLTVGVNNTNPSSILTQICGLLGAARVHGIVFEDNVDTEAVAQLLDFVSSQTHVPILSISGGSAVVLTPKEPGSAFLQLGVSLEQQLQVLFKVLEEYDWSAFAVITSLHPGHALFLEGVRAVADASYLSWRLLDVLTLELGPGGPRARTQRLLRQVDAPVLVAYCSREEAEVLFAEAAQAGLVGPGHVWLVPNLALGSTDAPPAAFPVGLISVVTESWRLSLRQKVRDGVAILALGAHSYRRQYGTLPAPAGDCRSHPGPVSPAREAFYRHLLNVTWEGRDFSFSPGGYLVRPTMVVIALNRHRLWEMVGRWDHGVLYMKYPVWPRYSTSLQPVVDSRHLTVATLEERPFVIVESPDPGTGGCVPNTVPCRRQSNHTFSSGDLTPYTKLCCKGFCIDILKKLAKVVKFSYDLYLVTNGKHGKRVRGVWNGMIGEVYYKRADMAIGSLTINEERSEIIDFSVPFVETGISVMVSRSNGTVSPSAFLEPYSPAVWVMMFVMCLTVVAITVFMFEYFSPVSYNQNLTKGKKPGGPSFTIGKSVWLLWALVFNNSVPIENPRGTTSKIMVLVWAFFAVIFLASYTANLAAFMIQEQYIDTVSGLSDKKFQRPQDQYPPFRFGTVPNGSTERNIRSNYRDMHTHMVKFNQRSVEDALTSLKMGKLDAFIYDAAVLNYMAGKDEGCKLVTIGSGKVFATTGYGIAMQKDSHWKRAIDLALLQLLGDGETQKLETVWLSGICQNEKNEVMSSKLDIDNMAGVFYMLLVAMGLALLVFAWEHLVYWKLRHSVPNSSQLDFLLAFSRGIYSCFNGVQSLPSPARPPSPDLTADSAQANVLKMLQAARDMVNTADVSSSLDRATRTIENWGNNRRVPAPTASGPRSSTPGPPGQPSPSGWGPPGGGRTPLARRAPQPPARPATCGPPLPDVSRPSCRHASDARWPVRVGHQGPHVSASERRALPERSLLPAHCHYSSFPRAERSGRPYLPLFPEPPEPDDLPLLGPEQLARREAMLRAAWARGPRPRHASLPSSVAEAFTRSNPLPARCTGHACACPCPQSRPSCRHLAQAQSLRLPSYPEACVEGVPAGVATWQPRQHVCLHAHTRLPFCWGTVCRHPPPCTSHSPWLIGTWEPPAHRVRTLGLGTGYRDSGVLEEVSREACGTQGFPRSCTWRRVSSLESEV
How it was run: as §1

[4] = biological target: T4, recombinant rat GluN1/GluN2A (Rattus norvegicus, UniProt Q00959); test: Two-electrode voltage-clamp recordings in Xenopus laevis oocytes, GluN2A; type: cell-based; conditions: oocytes, 100 μM glutamate and 30 μM glycine
T4 construct: expressed in transfected cells; host or cells: Xenopus laevis oocytes injected with cRNA (GluN1:GluN2 ratio 1:2)
T4 sequence (Q00959 23-1464, other chains not shown): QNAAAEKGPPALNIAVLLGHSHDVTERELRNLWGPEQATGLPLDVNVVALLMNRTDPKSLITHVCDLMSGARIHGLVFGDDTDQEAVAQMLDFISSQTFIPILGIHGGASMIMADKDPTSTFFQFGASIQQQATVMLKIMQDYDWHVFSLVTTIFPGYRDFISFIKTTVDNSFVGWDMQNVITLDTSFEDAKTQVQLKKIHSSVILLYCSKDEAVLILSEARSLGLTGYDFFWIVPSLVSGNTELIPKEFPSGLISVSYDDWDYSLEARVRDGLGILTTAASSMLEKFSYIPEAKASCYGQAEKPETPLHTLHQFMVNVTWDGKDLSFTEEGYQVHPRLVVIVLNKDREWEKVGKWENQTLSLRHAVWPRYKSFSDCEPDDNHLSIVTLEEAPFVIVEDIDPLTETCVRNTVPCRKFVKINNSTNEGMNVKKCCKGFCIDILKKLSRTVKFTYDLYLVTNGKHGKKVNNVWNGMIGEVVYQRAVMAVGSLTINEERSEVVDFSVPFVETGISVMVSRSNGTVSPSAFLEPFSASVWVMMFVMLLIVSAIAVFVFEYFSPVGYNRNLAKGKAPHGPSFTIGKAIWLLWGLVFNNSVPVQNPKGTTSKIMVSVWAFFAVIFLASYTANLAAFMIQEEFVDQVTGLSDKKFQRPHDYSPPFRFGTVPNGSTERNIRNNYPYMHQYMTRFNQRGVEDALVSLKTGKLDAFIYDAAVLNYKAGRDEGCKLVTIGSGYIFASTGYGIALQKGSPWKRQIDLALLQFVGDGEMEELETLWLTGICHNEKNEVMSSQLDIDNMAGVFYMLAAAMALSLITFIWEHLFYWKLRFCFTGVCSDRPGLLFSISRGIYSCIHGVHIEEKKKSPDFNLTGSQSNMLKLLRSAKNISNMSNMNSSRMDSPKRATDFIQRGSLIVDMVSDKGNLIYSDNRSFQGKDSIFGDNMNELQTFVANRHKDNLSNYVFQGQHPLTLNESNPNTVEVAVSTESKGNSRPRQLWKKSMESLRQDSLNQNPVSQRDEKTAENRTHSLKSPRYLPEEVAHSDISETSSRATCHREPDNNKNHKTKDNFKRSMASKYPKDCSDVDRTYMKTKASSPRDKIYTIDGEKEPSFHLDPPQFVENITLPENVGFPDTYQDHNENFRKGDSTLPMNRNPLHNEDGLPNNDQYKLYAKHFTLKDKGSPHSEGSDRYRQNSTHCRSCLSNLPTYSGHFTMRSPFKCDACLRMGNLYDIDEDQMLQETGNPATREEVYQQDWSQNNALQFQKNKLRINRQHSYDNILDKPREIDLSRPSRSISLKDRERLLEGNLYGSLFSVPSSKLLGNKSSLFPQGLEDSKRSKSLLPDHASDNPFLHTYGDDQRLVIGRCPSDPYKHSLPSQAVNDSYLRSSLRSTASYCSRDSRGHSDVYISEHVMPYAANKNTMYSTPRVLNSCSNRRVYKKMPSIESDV
How it was run: as §1

[5] = system: recombinant GluN2A-D subunits; test: Two-electrode voltage-clamp recordings, statements on all receptors; type: cell-based, rat
Description: All target compounds were evaluated for activity by the Traynelis laboratory at Emory University using two-electrode voltage-clamp recordings performed in Xenopus laevis oocytes expressing recombinant GluN2A-D subunits (Table 1). […] Two ester compounds 997-65 and 997-66 also performed no inhibition at GluN2A to GluN2D receptors. […] Consequently, for the compounds that Acker et al. already published, it was necessary to increase the concentration to 100 μM when collecting data for a concentration effect curve. […] Therefore, under this condition, we can only conclude that compound 997-67 remained potent at GluN2C/D-containing receptors, but its selectivity over GluN2A- and GluN2B-containing receptors could not be compared to 997-57. […] Finally, replacing the carboxylic acid to the bio-isostere amide yielded compounds 997-96 and 997-115, which dropped the potency 2- to 4-fold in comparison to their corresponding acids 997-74 and 997-114.
Two-electrode voltage-clamp recordings were performed in Xenopus laevis oocytes that were injected with mRNA to express recombinant rat GluN1/GluN2A, GluN1/GluN2B, GluN1/GluN2C, and GluN1/GluN2D. The recordings using unfertilized oocytes from Xenopus laevis were permitted by Emory University Institutional Animal Care and Use Committee (IACUC). An automatic injector (Nanoject II, Drummond Scientific) was used for cRNA injection using the pipettes filled with mineral oil. The cRNA that transcribed in vitro via the mMessage Machine kit (Ambion) was diluted with nuclease-free water, and then injected at GluN1/GluN2 with a ratio of 1:2. The oocytes were stored in Barth's solution that contained 88 mM NaCl, 5.0 mM Tris-HCl, 2.4 mM NaHCO3, 1.0 mM KCl, 0.84 mM MgSO4, 0.41 mM CaCl2, 0.33 mM Ca(NO3)2, 0.1 mg/ml gentamycin sulfate, 1.0 U/ml penicillin, and 1 μg/ml streptomycin at a pH of 7.4 and temperatures of 15-17° C. for two to five days before the two-electrode voltage-clamp recordings. When recording, the oocytes were placed in a perfusion chamber and continually washed with the recording solution comprised of 90 mM NaCl, 1.0 mM KCl, 0.50 mM BaCl2, 0.005 mM EDTA, and 10 mM HEPES at a pH of 7.4 and a temperature of 23° C. Glass electrodes with a tip resistance of 0.5 to 2.5 MΩ were obtained from thin-walled glass capillary tubes. Voltage electrodes and current electrodes were filled with 0.3 M and 3.0 M KCl, respectively. The recordings were executed with the oocytes membrane potential holding at −40 m V by an OC-725 amplifier (Warner Instrument Co). All compounds were dissolved in dimethyl sulfoxide (DMSO) as 20 mM stock solutions and future diluted to reach the desired concentration (0.05-0.5% (vol/vol) DMSO) in recording solution comprised of 30 μM glycine and 100 μM glutamate. Each compound was recorded 3-7 times in the least 4 oocytes from at least 2 different Xenopus laevis.
To evaluate the inhibition of compounds, the concentration-response curve was fitted with the average two-electrode voltage-clamp recording results with the equation
[formula] • where IC50 is the concentration of compounds that inhibit half maximal of the current response and N is the Hill slope.

O=C(O)CCC(=O)N1N=C(c2c(-c3ccc(Cl)cc3)c3ccccc3[nH]c2=O)CC1c1ccncc1Cl (stereo not shown) [997-88, 4-(3-(4-(4-chlorophenyl)-2-oxo-1,2-dihydroquinolin-3-yl)-5-(3-chloropyridin-4-yl)-4,5-dihydro-1H-pyrazol-1-yl)-4-oxobutanoic acid]
GluN2D IC50 [1]: NE (NE indicates less than 50% inhibition at 30 μM.) | GluN2B IC50 [2]: NE (NE indicates less than 50% inhibition at 30 μM.) | GluN2C IC50 [3]: NE (NE indicates less than 50% inhibition at 30 μM.) | GluN2A IC50 [4]: NE (NE indicates less than 50% inhibition at 30 μM.) | activity at all receptors (GluN2A to GluN2D), in words [5]: inactive

Cc1c(C2=NN(C(=O)CCC(=O)O)C(c3ccc(Cl)cc3)C2)c(=O)[nH]c2ccccc12 (stereo not shown) [997-76, 4-(5-(4-chlorophenyl)-3-(4-methyl-2-oxo-1,2-dihydroquinolin-3-yl)-4,5-dihydro-1H-pyrazol-1-yl)-4-oxobutanoic acid]
GluN2D IC50 [1]: NE (NE indicates less than 50% inhibition at 30 μM.) | GluN2B IC50 [2]: NE (NE indicates less than 50% inhibition at 30 μM.) | GluN2C IC50 [3]: NE (NE indicates less than 50% inhibition at 30 μM.) | GluN2A IC50 [4]: NE (NE indicates less than 50% inhibition at 30 μM.) | activity at all receptors (GluN2A to GluN2D), in words [5]: inactive

CCOC(=O)C(F)(F)CC(=O)N1N=C(c2c(-c3ccc(Cl)cc3)c3ccccc3[nH]c2=O)CC1c1ccc(Cl)cc1 (stereo not shown) [997-66, Ethyl 4-{5-(4-chlorophenyl)-3-[4-(4-chlorophenyl)-2-oxo-1,2-dihydroquinolin-3-yl]-4,5-dihydro-1H-pyrazol-1-yl}-2,2-difluoro-4-oxobutanoate]
GluN2D IC50 [1]: NE (NE indicates less than 50% inhibition at 30 μM.) | GluN2B IC50 [2]: NE (NE indicates less than 50% inhibition at 30 μM.) | GluN2C IC50 [3]: NE (NE indicates less than 50% inhibition at 30 μM.) | GluN2A IC50 [4]: NE (NE indicates less than 50% inhibition at 30 μM.) | activity at all receptors (GluN2A to GluN2D), in words [5]: no inhibition

O=C(O)CCC(=O)N1N=C(c2ccccc2-c2ccc(Cl)cc2)CC1c1cccc2c1OCO2 (stereo not shown) [997-122, 4-(5-(benzo[d][1,3]dioxol-4-yl)-3-(4′-chloro-[1,1′-biphenyl]-2-yl)-4,5-dihydro-1H-pyrazol-1-yl)-4-oxobutanoic acid]
GluN2D IC50 [1]: NE (NE indicates less than 50% inhibition at 30 μM.) | GluN2B IC50 [2]: NE (NE indicates less than 50% inhibition at 30 μM.) | GluN2C IC50 [3]: NE (NE indicates less than 50% inhibition at 30 μM.) | GluN2A IC50 [4]: NE (NE indicates less than 50% inhibition at 30 μM.) | activity at all receptors (GluN2A to GluN2D), in words [5]: inactive

O=C(O)CCC(=O)N1N=C(c2c(-c3ccc(Cl)cc3)c3ccccc3[nH]c2=O)CC1c1cnccn1 (stereo not shown) [997-80, 4-(3-(4-(4-chlorophenyl)-2-oxo-1,2-dihydroquinolin-3-yl)-5-(pyrazin-2-yl)-4,5-dihydro-1H-pyrazol-1-yl)-4-oxobutanoic acid]
GluN2D IC50 [1]: NE (NE indicates less than 50% inhibition at 30 μM.) | GluN2B IC50 [2]: NE (NE indicates less than 50% inhibition at 30 μM.) | GluN2C IC50 [3]: NE (NE indicates less than 50% inhibition at 30 μM.) | GluN2A IC50 [4]: NE (NE indicates less than 50% inhibition at 30 μM.) | activity at all receptors (GluN2A to GluN2D), in words [5]: inactive

O=C(/C=C/c1ccc(Cl)cc1)c1c(-c2cccc(F)c2)c2ccccc2[nH]c1=O [997-71, (E)-3-[3-(4-chlorophenyl)acryloyl]-4-(3-fluorophenyl)quinolin-2(1H)-one]
GluN2D IC50 [1]: NE (NE indicates less than 50% inhibition at 30 μM.) | GluN2B IC50 [2]: NE (NE indicates less than 50% inhibition at 30 μM.) | GluN2C IC50 [3]: NE (NE indicates less than 50% inhibition at 30 μM.) | GluN2A IC50 [4]: NE (NE indicates less than 50% inhibition at 30 μM.) | activity at all receptors (GluN2A to GluN2D), in words [5]: inactive

CCOC(=O)C(F)(F)CC(=O)N1N=C(c2c(-c3cccc(F)c3)c3ccccc3[nH]c2=O)CC1c1ccc(Cl)cc1 (stereo not shown) [997-65, Ethyl 4-{5-(4-chlorophenyl)-3-[4-(3-fluorophenyl)-2-oxo-1,2-dihydroquinolin-3-yl]-4,5-dihydro-1H-pyrazol-1-yl}-2,2-difluoro-4-oxobutanoate]
GluN2D IC50 [1]: NE (NE indicates less than 50% inhibition at 30 μM.) | GluN2B IC50 [2]: NE (NE indicates less than 50% inhibition at 30 μM.) | GluN2C IC50 [3]: NE (NE indicates less than 50% inhibition at 30 μM.) | GluN2A IC50 [4]: NE (NE indicates less than 50% inhibition at 30 μM.) | activity at all receptors (GluN2A to GluN2D), in words [5]: no inhibition

O=c1[nH]c2ccccc2c(-c2ccc(Cl)cc2)c1C1=NNC(c2ccc(Cl)cc2)C1 (stereo not shown) [997-70, 4-(4-chlorophenyl)-3-[5-(4-chlorophenyl)-4,5-dihydro-1H-pyrazol-3-yl]quinolin-2(1H)-one]
GluN2D IC50 [1]: NE (NE indicates less than 50% inhibition at 30 μM.) | GluN2B IC50 [2]: NE (NE indicates less than 50% inhibition at 30 μM.) | GluN2C IC50 [3]: NE (NE indicates less than 50% inhibition at 30 μM.) | GluN2A IC50 [4]: NE (NE indicates less than 50% inhibition at 30 μM.) | activity at all receptors (GluN2A to GluN2D), in words [5]: inactive

O=C(O)CC(F)(F)C(=O)N1N=C(c2ccccc2-c2ccc(Cl)cc2)CC1c1cccc2c1OCO2 (stereo not shown) [997-119, 4-(5-(benzo[d][1,3]dioxol-4-yl)-3-(4′-chloro-[1,1′-biphenyl]-2-yl)-4,5-dihydro-1H-pyrazol-1-yl)-3,3-difluoro-4-oxobutanoic acid]
GluN2D IC50 [1]: NE (NE indicates less than 50% inhibition at 30 μM.) | GluN2B IC50 [2]: NE (NE indicates less than 50% inhibition at 30 μM.) | GluN2C IC50 [3]: NE (NE indicates less than 50% inhibition at 30 μM.) | GluN2A IC50 [4]: NE (NE indicates less than 50% inhibition at 30 μM.) | activity at all receptors (GluN2A to GluN2D), in words [5]: inactive

O=C(O)CC(F)(F)C(=O)N1N=C(c2ccccc2-c2cccc(F)c2)CC1c1ccc(Cl)cc1 (stereo not shown) [997-100, 4-(5-(4-chlorophenyl)-3-(3′-fluoro-[1,1′-biphenyl]-2-yl)-4,5-dihydro-1H-pyrazol-1-yl)-3,3-difluoro-4-oxobutanoic acid]
GluN2D IC50 [1]: NE (NE indicates less than 50% inhibition at 30 μM.) | GluN2B IC50 [2]: NE (NE indicates less than 50% inhibition at 30 μM.) | GluN2C IC50 [3]: NE (NE indicates less than 50% inhibition at 30 μM.) | GluN2A IC50 [4]: NE (NE indicates less than 50% inhibition at 30 μM.) | activity at all receptors (GluN2A to GluN2D), in words [5]: lost the activity

O=C(O)CCC(=O)N1N=C(c2c(-c3ccc(Cl)cc3)c3ccccc3[nH]c2=O)CC1c1cccnc1 (stereo not shown) [997-83, 4-(3-(4-(4-chlorophenyl)-2-oxo-1,2-dihydroquinolin-3-yl)-5-(pyridin-3-yl)-4,5-dihydro-1H-pyrazol-1-yl)-4-oxobutanoic acid]
GluN2D IC50 [1]: NE (NE indicates less than 50% inhibition at 30 μM.) | GluN2B IC50 [2]: NE (NE indicates less than 50% inhibition at 30 μM.) | GluN2C IC50 [3]: NE (NE indicates less than 50% inhibition at 30 μM.) | GluN2A IC50 [4]: NE (NE indicates less than 50% inhibition at 30 μM.) | activity at all receptors (GluN2A to GluN2D), in words [5]: inactive
